Assay results published in US20060247261A1 (priority 2002, published 2006).

Target: T1, human cannabinoid CB2 receptor (Homo sapiens, UniProt P34972)
T1 construct: expressed in transfected cells; host or cells: Saccharomyces cerevisiae strain MMY23 (expresses a chimeric Gpa1/human Galpha-i3 G-protein alpha subunit)
Assay: Cannabinoid CB2 receptor agonist activity, yeast reporter assay
Assay type: cell-based
Details: for Emax: read-out: efficacy (Emax) at the cloned human cannabinoid CB2 receptor
Text: Yeast (Saccharomyces cerevisiae) cells expressing the human cannabinoid CB2 receptor were generated by integration of an expression cassette into the ura3 chromosomal locus of yeast strain MMY23. This cassette consisted of DNA sequence encoding the human CB2 receptor flanked by the yeast GPD promoter to the 5′ end of CB2 and a yeast transcriptional terminator sequence to the 3′ end of CB2. MMY23 expresses a yeast/mammalian chimeric G-protein alpha subunit in which the C-terminal 5 amino acids of Gpa1 are replaced with the C-terminal 5 amino acids of human Gαi3 (as described in Brown et al. (2000), Yeast 16:11-22).
Agonists were prepared as 10 mM stocks in DMSO. […] Agonist solutions in DMSO (1% final assay volume) were transferred into black, clear bottom, microtitre plates from NUNC (96- or 384-well). […] Fluorescence was plotted against compound concentration and iteratively curve fitted using a four parameter fit to generate a concentration effect value.

T1 sequence (P34972 whole entry): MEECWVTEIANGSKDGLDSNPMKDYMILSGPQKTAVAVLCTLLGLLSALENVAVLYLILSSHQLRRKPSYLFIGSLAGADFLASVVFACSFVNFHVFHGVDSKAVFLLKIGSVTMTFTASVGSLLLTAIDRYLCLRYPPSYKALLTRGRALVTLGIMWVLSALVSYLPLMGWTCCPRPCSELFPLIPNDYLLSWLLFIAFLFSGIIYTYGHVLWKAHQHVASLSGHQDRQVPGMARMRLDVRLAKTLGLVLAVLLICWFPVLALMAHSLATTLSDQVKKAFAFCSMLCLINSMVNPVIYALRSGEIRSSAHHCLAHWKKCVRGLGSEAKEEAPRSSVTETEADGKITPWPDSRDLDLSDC

Row | SMILES | EC50 [nM] | Emax [%]
1 | CN(Cc1ccccc1)C(=O)c1cnc(Nc2ccc(Cl)cc2)nc1C(F)(F)F [Example 45, 2-(4-Chloro-phenylamino)-4-trifluoromethyl-pyrimidine-5-carboxylic acid N-benzyl-N-methyl-amide] | > 1000 | < 50
2 | COc1ccc(Nc2ncc(C(=O)NCc3ccccc3)c(C(F)(F)F)n2)cc1 [Example 46, 2-(4-Methoxy-phenylamino)-4-trifluoromethyl-pyrimidine-5-carboxylic acid N-benzylamide] | > 1000 | < 50
3 | COc1ccc(Nc2ncc(C(=O)N(C)Cc3ccccc3)c(C(F)(F)F)n2)cc1 [Example 47, 2-(4-Methoxy-phenylamino)-4-trifluoromethyl-pyrimidine-5-carboxylic acid N-benzyl-N-methyl-amide] | > 1000 | < 50
4 | CN(Cc1ccccc1)C(=O)c1cnc(Nc2cccc(C#N)c2)nc1C(F)(F)F [Example 48, 2-(3-Cyano-phenylamino)-4-trifluoromethyl-pyrimidine-5-carboxylic acid N-benzyl-N-methyl-amide] | > 1000 | < 50
5 | CN(Cc1ccccc1)C(=O)c1cnc(Nc2ccc(C#N)cc2)nc1C(F)(F)F [Example 49, 2-(4-Cyano-phenylamino)-4-trifluoromethyl-pyrimidine-5-carboxylic acid N-benzyl-N-methyl-amide] | > 1000 | < 50
6 | COc1cccc(CNC(=O)c2cnc(Nc3cccc(Cl)c3)nc2C(F)(F)F)c1 [Example 50, 2-(3-Chloro-phenylamino)-4-trifluoromethyl-pyrimidine-5-carboxylic acid N-(3-methoxybenzyl)amide] | > 1000 | < 50
7 | O=C(NCc1ccccc1Cl)c1cnc(Nc2cccc(Cl)c2)nc1C(F)(F)F [Example 51, 2-(3-Chloro-phenylamino)-4-trifluoromethyl-pyrimidine-5-carboxylic acid N-(2-chlorobenzyl)amide] | > 1000 | < 50
8 | O=C(NCc1cccc(Cl)c1)c1cnc(Nc2cccc(Cl)c2)nc1C(F)(F)F [Example 52, 2-(3-Chloro-phenylamino)-4-trifluoromethyl-pyrimidine-5-carboxylic acid N-(3-chlorobenzyl)amide] | > 1000 | < 50
9 | CCN(Cc1ccccc1)C(=O)c1cnc(Nc2ccccc2Cl)nc1C(F)(F)F [Example 53, 2-(2-Chloro-phenylamino)-4-trifluoromethyl-pyrimidine-5-carboxylic acid N-benzyl-N-ethyl-amide] | > 1000 | < 50
10 | CN(Cc1ccccc1)C(=O)c1cnc(Nc2ccc(Cl)cc2Cl)nc1C(F)(F)F [Example 54, 2-(2,4-Dichloro-phenylamino)-4-trifluoroniethyl-pyrimidine-5-carboxylic acid N-benzyl-N methyl-amide] | > 1000 | < 50
11 | CN(Cc1ccccc1)C(=O)c1cnc(Nc2ccc(Cl)c(Cl)c2)nc1C(F)(F)F [Example 55, 2-(3,4-Dichloro-phenylamino)-4-trifluoromethyl-pyrimidine-5-carboxylic acid N-benzyl-N-methyl-amide] | > 1000 | < 50
12 | O=C(NCc1ccccc1)c1cnc(Nc2cc(Cl)ccc2Cl)nc1C(F)(F)F [Example 56, 2-(2,5-Dichloro-phenylamino)-4-trifluoromethyl-pyrimidine-5-carboxylic acid N-benzylamide] | > 1000 | < 50
13 | CN(Cc1ccccc1)C(=O)c1cnc(Nc2cc(Cl)cc(Cl)c2)nc1C(F)(F)F [Example 57, 2-(3,5-Dichloro-phenylamino)-4-trifluoromethyl-pyrimidine-5-carboxylic acid N-benzyl-N-methyl-amide] | > 1000 | < 50
14 | CN(Cc1ccccc1)C(=O)c1cnc(Nc2cc(Cl)ccc2Cl)nc1C(F)(F)F [Example 58, 2-(2,5-Dichloro-phenylamino)-4-trifluoromethyl-pyrimidine-5-carboxylic acid N-benzyl-N-methyl-amide] | > 1000 | < 50
15 | O=C(NCc1ccccn1)c1cnc(Nc2cccc(Cl)c2)nc1C(F)(F)F [Example 59, 2-(3-Chloro-phenylamino)-4-trifluoromethyl-pyrimidine-5-carboxylic acid N-(pyridin-2-ylmethyl)-amide] | > 1000 | < 50
16 | O=C(NCc1cccnc1)c1cnc(Nc2cccc(Cl)c2)nc1C(F)(F)F [Example 60, 2-(3-Chloro-phenylamino)-4-trifluoromethyl-pyrimidine-5-carboxylic acid N-(pyridin-3-ylmetbyl)-amide] | > 1000 | < 50

Row | SMILES | EC50 [nM] | Emax [%]
17 | O=C(NCc1cc(F)cc(F)c1)c1cnc(Nc2cccc(Cl)c2)nc1C(F)(F)F [Example 61, 2-(3-Chloro-phenylamino)-4-trifluoromethyl-pyrimidine-5-carboxylic acid N-(3,5-difluoro-benzyl)amide] | > 1000 | < 50
18 | O=C(NCc1ccc(OC(F)(F)F)cc1)c1cnc(Nc2cccc(Cl)c2)nc1C(F)(F)F [Example 62, 2-(3-Chloro-phenylamino)-4-trifluoromethyl-pyrimidine-5-carboxylic acid N-(4-trifluoromethoxybenzyl)amide] | > 1000 | < 50
19 | O=C(NCc1ccc(Br)cc1)c1cnc(Nc2cccc(Cl)c2)nc1C(F)(F)F [Example 63, 2-(3-Chloro-phenylamino)-4-trifluoromethyl-pyrimidine-5-carboxylic acid N-(4-bromo-benzyl)amide] | > 1000 | < 50
20 | N#Cc1ccc(CNC(=O)c2cnc(Nc3cccc(Br)c3)nc2C(F)(F)F)cc1 [Example 64, 2-(3-Bromo-phenylamino)-4-trifluoromethyl-pyrimidine-5-carboxylic acid N-(4-cyano-benzyl)amide] | > 1000 | < 50
21 | N#Cc1ccc(CNC(=O)c2cnc(Nc3cccc(Cl)c3Cl)nc2C(F)(F)F)cc1 [Example 65, 2-(2,3-Dichloro-phenylamino)-4-trifluoromethyl-pyrimidine-5-carboxylic acid N-(4-cyano-benzyl)amide] | > 1000 | < 50
22 | N#Cc1ccc(CNC(=O)c2cnc(Nc3ccc(Cl)cc3Cl)nc2C(F)(F)F)cc1 [Example 66, 2-(2,4-Dichloro-phenylamino)-4-trifluoromethyl-pyrimidine-5-carboxylic acid N-(4-cyano-benzyl)amide] | > 1000 | < 50
23 | N#Cc1ccc(CNC(=O)c2cnc(Nc3cc(Cl)ccc3Cl)nc2C(F)(F)F)cc1 [Example 67, 2-(2,5-Dichloro-phenylamino)-4-trifluoromethyl-pyrimidine-5-carboxylic acid N-(4-cyano-benzyl)amide] | > 1000 | < 50
24 | N#Cc1ccc(CNC(=O)c2cnc(Nc3ccc(Cl)c(Cl)c3)nc2C(F)(F)F)cc1 [Example 68, 2-(3,4-Dichloro-phenylamino)-4-trifluoromethyl-pyrimidine-5-carboxylic acid N-(4-cyano-benzyl)amide] | > 1000 | < 50
25 | O=C(NCc1ccncc1)c1cnc(Nc2c(Cl)cccc2Cl)nc1C(F)(F)F [Example 69, 2-(2,6-Dichloro-phenylamino)-4-trifluorometbyl-pyrimidine-5-carboxylic acid N-(pyridin-4-ylmethyl)-amide] | > 1000 | < 50
26 | O=C(NCc1ccc(F)cc1)c1cnc(Nc2c(Cl)cccc2Cl)nc1C(F)(F)F [Example 70, 2-(2,6-Dichloro-phenylamino)-4-trifluoromethyl-pyrimidine-5-carboxylic acid N-(4-fluoro-benzyl)amide] | > 1000 | < 50
27 | N#Cc1ccc(CNC(=O)c2cnc(Nc3c(Cl)cccc3Cl)nc2C(F)(F)F)cc1 [Example 71, 2-(2,6-Dichloro-phenylamino)-4-trifluoroniethyl-pyrimidine-5-carboxylic acid N-(4-cyano-benzyl)amide] | > 1000 | < 50
28 | O=C(NCc1ccc(F)cc1Cl)c1cnc(Nc2cccc(Cl)c2)nc1C(F)(F)F [Example 72, 2-(3-Chloro-phenylamino)-4-trifluoromethyl-pyrimidine-5-carboxylic acid N-(2-chloro-4-fluoro-benzyl)amide] | > 1000 | < 50
29 | O=C(NCc1ccc(F)cc1C(F)(F)F)c1cnc(Nc2cccc(Cl)c2)nc1C(F)(F)F [Example 74, 2-(3-Chloro-phenylamino)-4-trifluoromethyl-pyrimidine-5-carboxylic acid N-(4-fluoro-2-trifluoromethyl-benzyl)amide] | > 1000 | < 50
30 | O=C(NCc1ccc(F)c(C(F)(F)F)c1)c1cnc(Nc2cccc(Cl)c2)nc1C(F)(F)F [Example 75, 2-(3-Chloro-phenylamino)-4-trifluoromethyl-pyrimidine-5-carboxylic acid N-(4-fluoro-3-trifluoromethyl-benzyl)amide] | > 1000 | < 50
31 | O=C(NCc1ccncn1)c1cnc(Nc2cccc(F)c2)nc1C(F)(F)F [Example 76, 2-(3-Fluoro-phenylamino)-4-trifluoromethyl-pyrimidine-5-carboxylic acid N-(pyrimidin-4-ylmethyl)-amide] | > 1000 | < 50
32 | Cc1cc(CNC(=O)c2cnc(Nc3cccc(F)c3)nc2C(F)(F)F)ccn1 [Example 77, 2-(3-Fluoro-phenylamino)-4-trifluoromethyl-pyrimidine-5-carboxylic acid N-(2-methyl-pyridin-4-ylmethyl)-amide] | > 1000 | < 50
